Values joined by “and” are separate entries in the source; they are usually repeats but may differ in a detail not shown here. Equal values may be shown once.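 Dose response: 5 concentrations. Exposure: 48 h. Format: 96-well plates. Endpoint: linear interpolation; highest concentration if not reached. Here, GI50 denotes the concentration required for 50% inhibition of growth. The concentration for full growth arrest is given as TGI.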
Columns and labels:
Test in all cases: NCI anticancer screen, dose series, 48 h
MOLT-4 leukemia = test system: MOLT-4 leukemia
CAKI-1 renal = test system: CAKI-1 renal
HCT-15 colon = test system: HCT-15 colon
TK-10 renal = test system: TK-10 renal
A549 NSCLC = test system: A549 NSCLC
HL-60(TB) leukemia = test system: HL-60(TB) leukemia
KM12 colon = test system: KM12 colon
OVCAR-3 ovarian = test system: OVCAR-3 ovarian
HOP-92 NSCLC = test system: HOP-92 NSCLC
BT-549 breast = test system: BT-549 breast

SMILES | TGI (MOLT-4 leukemia) | TGI (CAKI-1 renal) | TGI (HCT-15 colon) | TGI (TK-10 renal) | TGI (A549 NSCLC) | TGI (HL-60(TB) leukemia) | TGI (KM12 colon) | TGI (OVCAR-3 ovarian) | TGI (HOP-92 NSCLC) | GI50 (MOLT-4 leukemia) | GI50 (CAKI-1 renal) | GI50 (BT-549 breast) | TGI (BT-549 breast) | GI50 (HCT-15 colon) | GI50 (TK-10 renal) | GI50 (A549 NSCLC) | GI50 (HL-60(TB) leukemia) | GI50 (OVCAR-3 ovarian) | GI50 (KM12 colon) | GI50 (HOP-92 NSCLC)
CNC(=S)OCCC(C)CCCC(C)C (stereo unspecified) | 27.1 µM | 31.7 µM | 27.9 µM | 25.5 µM | 32.5 µM | 23.6 µM | 27.8 µM | – | – | – | – | – | – | – | – | – | – | – | – | –
CCOC(=O)CCC1(C(=O)OCC)CCCCC1=O (stereo unspecified) | > 100 µM | – | – | > 100 µM | > 100 µM | > 100 µM | > 100 µM | > 100 µM | > 100 µM | – | – | – | – | – | – | – | – | – | – | –
COc1ccc2c(c1)sc1nc(-c3ccccc3)c(-c3cccc4ccccc34)n12 | > 100 µM | > 100 µM | > 38.4 µM | > 100 µM | > 100 µM | – | > 34.7 µM | 1.46 µM | – | 0.774 µM | 0.792 µM | 1.15 µM | > 93.2 µM | 0.47 µM | 5.17 µM | 0.816 µM | 0.148 µM | 0.35 µM | 0.429 µM | –
NS(=O)(=O)c1ccc2c(c1)OCCOCCOCCOCCO2 | > 100 µM | > 100 µM | > 100 µM | > 100 µM | > 100 µM | > 100 µM | > 100 µM | – | – | – | – | – | > 100 µM | – | – | – | – | – | – | –
O=C(CCc1nc(=S)[nH][nH]1)Nc1cc(Cl)c(Cl)cc1Cl | > 100 µM | > 100 µM | > 100 µM | > 100 µM | > 100 µM | > 100 µM | > 100 µM | > 100 µM | > 100 µM | – | – | – | – | – | – | – | – | – | – | –
Cc1cc(-c2nc(C(=O)Nc3cc4oc(N5CCOCC5)nc4nc3N3CC[C@@H](O)C3)co2)ccn1 | > 100 µM | 71.6 µM | > 100 µM | > 100 µM | > 100 µM | > 100 µM | > 100 µM | > 100 µM | – | 38.3 µM | 17.1 µM | 33 µM | > 100 µM | 25.7 µM | 26.7 µM | 28.9 µM | 35.2 µM | 27 µM | 3.46 µM | –
CN(C)N=Nc1ccc(C(N)=O)cc1 | > 100 µM | > 100 µM | > 100 µM | > 100 µM | > 100 µM | > 100 µM | > 100 µM | > 100 µM | > 100 µM | – | – | – | – | – | – | – | – | – | – | –
Nc1ccccc1S(=O)(=O)N(CC(=O)O)c1ccccc1 | > 100 µM | > 100 µM | > 100 µM | > 100 µM | > 100 µM | > 100 µM | – | – | > 100 µM | – | – | – | – | – | – | – | – | – | – | –
CCOC1Oc2ccccc2C(=O)/C1=C/Nc1ccc(C(C)=O)cc1 (stereo unspecified) | 53.3 µM | 45.3 µM | 46.3 µM | – | > 100 µM | – | 50.2 µM | 43.8 µM | > 100 µM | 15.8 µM | 19 µM | 29 µM | 92.3 µM | 17.4 µM | – | 50.3 µM | – | 17.2 µM | 19.1 µM | 25.6 µM
Nc1nc(-n2c(-c3ccccc3)nc3c(Br)cc(Br)cc3c2=O)nnc1-c1cccc(Cl)c1Cl | > 100 µM | > 100 µM | 21.9 µM | 20.8 µM | > 100 µM | – | 63.4 µM | 53.6 µM | > 100 µM | 25.4 µM | 17 µM | 19.1 µM | > 100 µM | 3.1 µM | 3.96 µM | 7.41 µM | – | 6.84 µM | 3.29 µM | 38.5 µM
NC(=O)NO.O.O.O.O.O.O.O.O.O.O.O.[Ge].[Ge].[Ge].[Ge].[Ge].[O]=[Ge].[O]=[Ge].[O]=[Ge].[O]=[Ge].[O]=[Ge][OH] | > 100 µM | > 100 µM | > 100 µM | > 100 µM | > 100 µM | 12.6 µM | > 100 µM | > 100 µM | > 100 µM | – | – | – | – | – | – | – | – | – | – | –
COC(=O)C1(C(C)C)CCc2c(OC)ccc(OC)c2C1=O (stereo unspecified) | > 100 µM | > 100 µM | > 100 µM | > 100 µM | > 100 µM | > 100 µM | > 100 µM | > 100 µM | – | – | – | – | – | – | – | – | – | – | – | –
CCC[CH2][Sn]([CH2]CCC)([S]c1cccc2cccnc12)[S]c1cccc2cccnc12 | 0.397 µM | 0.342 µM | 0.411 µM | 0.552 µM | 1.34 µM | – | – | 0.228 µM | – | 0.109 µM | 0.123 µM | – | – | 0.176 µM | 0.249 µM | 0.348 µM | – | 0.0703 µM | – | –
O=C(Nc1ccc(F)cc1)Nc1ccc(Cl)c([N+](=O)[O-])c1 | 92.9 µM | – | 12.1 µM | 20.1 µM | 16.3 µM | 8.56 µM | 13.8 µM | 19.1 µM | 6.12 µM | 3.13 µM | – | 2.9 µM | 10.8 µM | 2.92 µM | 4.1 µM | 3.09 µM | 2.5 µM | 3.81 µM | 3.3 µM | 2.03 µM
CC1(C(=O)O)CCC[C@@]2(C)C1CC[C@@]1(C)c3cocc3CCC21 (stereo partly specified) | > 100 µM | > 100 µM | > 100 µM | > 100 µM | > 100 µM | > 100 µM | > 100 µM | > 100 µM | > 100 µM | – | – | – | – | – | – | – | – | – | – | –
CCCCCCCCCCCCCC(=O)OC(/C=C/C(C)C)C(O)C(O)C(OC)C(=O)NC1CCCCN(C)C1=O (stereo unspecified) | 7.54 µM and > 49 µM | 7.51 µM | 7.55 µM and > 49 µM | 32.5 µM and > 49 µM | 5.06 µM and > 49 µM | 5.49 µM and 10.4 µM and > 49 µM | 7.49 µM and > 49 µM | 8.03 µM and > 49 µM | > 49 µM | – | – | – | – | – | > 49 µM | – | – | – | – | > 49 µM
C1=C2/CC[C@H](Sc3ccccc3)C2C2(CCCCC/1)OCCO2 (stereo partly specified) | > 100 µM | – | – | > 100 µM | – | > 100 µM | 94 µM | 72.1 µM | 29.6 µM | – | – | – | – | – | – | – | – | – | – | –
O=C(CCNC12CC3CC(CC(C3)C1)C2)c1ccccc1 | 35.3 µM | – | 40.2 µM | 39.6 µM | > 100 µM | 28.1 µM | 91.1 µM | – | 64.2 µM | – | – | – | 85.3 µM | – | – | – | – | – | – | –
O=C(CCc1nc(=S)[nH][nH]1)Nc1ccc(Cl)c(Cl)c1 | > 100 µM | > 100 µM | 65.6 µM | > 100 µM | > 100 µM | > 100 µM | > 100 µM | > 100 µM | > 100 µM | – | – | – | – | – | – | – | – | – | – | –

Source: PubChem BioAssay (NCI)
